Test results: US10604739B2, “Cardiomyocyte production” (Cellular Dynamics International, Inc., priority 2009, dated 2020)

Columns and labels:
iPS6.1 and H9-TGZ cells = experiment: Meta-analysis of paired conditions with and without 50 ng/mL HGF; type: cell-based, human
Protocol: A meta-analysis across these experiments was performed to assess whether the inventors could detect any measurable benefit of including HGF in the induction medium. This analysis reviewed all the available experiments for paired conditions with and without 50 ng/mL HGF. […] This left 14 paired conditions (11 performed in triplicate within an experiment). To aid in this analysis, a process raw material cost model was employed to estimate the cost per million cardiomyocytes under each condition. This model used the most up-to-date raw material cost and process information available at the time (˜Jun. 1, 2009).

H9-TGZ cells = experiment: H9-TGZ Growth Factor Titration #2 (repeat); type: cell-based, human; settings: FIGS. 32A-C
Protocol: Aggregate formation and cardiac induction procedures of those iPS cells at different initial densities were performed essentially the same as described in Examples 4 except different concentrations of human HGF (hHGF) and FGF were applied to Aggregate Formation Medium, Aggregate Transition Medium and Cardiac Induction Medium.
Due to the issues with aggregate formation noted above, the H9-TGZ growth factor titration experiment was repeated. […] However, it is important to note that despite the overall poor performance of the cultures, the usual and expected decrease in performance at low FGF level was still discernable (FIGS. 32A-C).

[1] = First iPS 4-corners, head-to-head pairings with purity >1%
[2] = First iPS GF matrix, head-to-head pairings with purity >1%
[3] = H9-TGZ Matrix #2, head-to-head pairings with purity >1%
[4] = H9-TGZ Matrix #2 repeat, head-to-head pairings with purity >1%
[5] = HGF Conc 50 ng/mL, 14 paired conditions
[6] = Second iPS GF matrix, head-to-head pairings with purity >1%
[7] = Total of all experiments, head-to-head pairings with purity >1%

## HGF: human recombinant HGF (hepatic growth factor), R&D systems
iPS6.1 and H9-TGZ cells; [1]
  Fraction with better CM/L @ 50 ng/mL HGF than 0: 0/1
  Fraction with better iPS:CM ratio @ 50 ng/mL HGF than 0: 0/1
iPS6.1 and H9-TGZ cells; [2]
  Fraction with better CM/L @ 50 ng/mL HGF than 0: 3/4
  Fraction with better iPS:CM ratio @ 50 ng/mL HGF than 0: 3/4
iPS6.1 and H9-TGZ cells; [3]
  Fraction with better CM/L @ 50 ng/mL HGF than 0: 2/4
  Fraction with better iPS:CM ratio @ 50 ng/mL HGF than 0: 2/4
iPS6.1 and H9-TGZ cells; [4]
  Fraction with better CM/L @ 50 ng/mL HGF than 0: 0/1
  Fraction with better iPS:CM ratio @ 50 ng/mL HGF than 0: 0/1
iPS6.1 and H9-TGZ cells; [5]
  CM/L, Average: 49
  CM/L, Best: 140
  CM/L, Worst: 1.5
  iPS:CM, Average: 100
  iPS:CM, Best: 7
  iPS:CM, Worst: 712
iPS6.1 and H9-TGZ cells; [6]
  Fraction with better CM/L @ 50 ng/mL HGF than 0: 2/4
  Fraction with better iPS:CM ratio @ 50 ng/mL HGF than 0: 2/4
iPS6.1 and H9-TGZ cells; [7]
  Fraction with better CM/L @ 50 ng/mL HGF than 0: 7/14
  Fraction with better iPS:CM ratio @ 50 ng/mL HGF than 0: 7/14
iPS6.1 and H9-TGZ cells; with vs without 50 ng/mL HGF, 14 paired conditions
  Effect of HGF in cardiomyocyte production process (on average): no measurable positive or negative effect
H9-TGZ cells
  Trend of culture performance across HGF concentrations: no observable trend of culture performance
